Where two headings read alike, the source gives them in different places.
Tests used:
human 5-HT1A receptor [1] = biological target: T1, human 5-HT1A receptor (Homo sapiens (Human), UniProt P08908); experiment: Test 1: agonistic activity for human 5-HT1A receptor (aequorin/Gα16 luminescence in CHO-K1 cell); format: cell-based; conditions: for Emax: CHO-K1; for EC50: CHO-K1 cell, aequorin luminescence
Description: (§1) Test 1: Evaluation of Agonistic Activity for Human 5-HT1A Receptor and Human D4 Receptor
(§2) Aequorin, Gα16 proteins, and each receptor were transiently expressed in CHO-K1 cell (Chinese hamster ovary), and seeded to 384-well plate. The plate was incubated in a CO2 incubator at 37° C. for 24 hours. Each example compound dissolved in DMSO was added thereto, and the change of luminescence amount was measured with Hamamatsu FDSS/μCELL System (Hamamatsu Photonics).

human D4 receptor [2] = biological target: T2, human D4 receptor (Homo sapiens (Human), UniProt P21917); experiment: Test 1: agonistic activity for human D4 receptor (aequorin/Gα16 luminescence in CHO-K1 cell); format: cell-based; conditions: for Emax: CHO-K1; for EC50: CHO-K1 cell, aequorin luminescence
Description: as §1, §2

[3] = Test 3-1: metabolic stability test of human liver microsome (0.1 mg/mL); format: in vitro ADME; conditions: test compound 0.1 μmol/L, 37° C., 30 minutes
Description: Test 3-1: Metabolic Stability Test of Human Liver Microsome
The stability of the present compounds for human liver microsome metabolism was evaluated as mentioned below. The used human liver microsome was obtained from Xenontech. Human liver microsome, NADPH, and each test compound were mixed in 25 mmol/L phosphate buffer solution (pH 7.4) to adjust each concentration as shown below, and the mixture was incubated at 37° C. for 30 minutes. • human liver microsome: 0.1 mg/mL • NAPDH: 3.2 mmol/L • test compound: 0.1 μmol/L
The residual ratio of the test compound in each sample after the incubation for 30 minutes was measured with a LC-MS, and the metabolic stability of human liver microsome was calculated about each test compound with the following formula. Metabolic stability of human liver microsome (mL/min/mg protein)=−LN (residual ratio)/“reaction time”/“concentration of human liver microsome”

hERG channel [4] = biological target: T3, hERG channel (Homo sapiens (Human), UniProt Q12809); experiment: Test 5-1: activity for inhibiting hERG channel (whole-cell patch clamp, hERG-CHO cell, Qpatch); format: cell-based; conditions: read-out: hERG inhibition IC50
Description: Test 5-1: Evaluation of Activity for Inhibiting hERG Channel
(§3) The activity of the present compound for inhibiting hERG channel was measured by whole-cell patch clamp method with auto patch clamp system, using CHO cell wherein hERG channel involved in human rapidly activating delayed rectifier potassium current (IKr) was forcibly expressed.
(§4) hERG-CHO cell purchased from ChanTest was incubated at 37° C. in a CO2 incubator, and the cell was exfoliated from the flask with trypsin to prepare a cell suspension, shortly before the hERG current measurement.
(§5) Extracellular fluid: 2 mmol/L CaCl2, 1 mmol/L MgCl2, 10 mmol/L HEPES, 4 mmol/L KCl, 145 mmol/L NaCl, 10 mmol/L glucose
Intracellular fluid: 5.4 mmol/L CaCl2, 1.8 mmol/L MgCl2, 10 mmol/L HEPES, 31 mmol/L KOH, 10 mmol/L EGTA, 120 mmol/L KCl, 4 mmol/L Na2-ATP
Test compound solution: The test compound was dissolved in DMSO by adjusting the concentration to 2 mmol/L or 20 mmol/L to prepare each test compound solution. […] (Measurement of Current Value and Data Analysis)
The cell suspension, the extracellular fluid, the intracellular fluid, and the measurement plate were set in an auto patch clamp system, and the hERG current was measured by whole-cell patch clamp method. […] Each pulse interval was 15 seconds. The data analysis was carried out with Qpatch Assay Software (Biolin Scientific). The test was carried out applying increscently 4 concentrations of each test compound, and the average of the peak tail currents that were obtained by the last 3 stimulations in each applied concentration was determined to be the evaluated data. By using the current inhibition rate for the pre-applied current at each concentration of each test compound, IC50 value was calculated by Hill equation with the software.

human 5-HT1A receptor [5] = biological target: T1, human 5-HT1A receptor; experiment: Test 2: binding activity to human 5-HT1A receptor ([3H] 8-OH-DPAT, CHO cell membrane)
Description: (§6) Test 2: Evaluation of Binding Activity to Human 5-HT1A Receptor, Human D4 Receptor, and Human D2 Receptor
(§7) CHO cell membrane fraction in which human 5-HT1A receptor, human D4 receptor, and human D2 receptor were expressed was purchased from PerkinElmer Co., Ltd. In the evaluation test of binding, the test compound dissolved in DMSO, each receptor membrane preparation diluted with buffer solution, and [3H] […] The nonspecific binding to each receptor was evaluated by a competition binding experiment in the presence of 10 μmol/L 8-OH-DPAT, 10 μmol/L dopamine, or 10 μmol/L spiperone, respectively.

human D4 receptor [6] = biological target: T2, human D4 receptor; experiment: Test 2: binding activity to human D4 receptor ([3H] dopamine, CHO cell membrane)
Description: as §6, §7

human D2 receptor = human D2 receptor (Homo sapiens (Human), UniProt P14416); experiment: Test 2: binding activity to human D2 receptor ([3H] spiperone, CHO cell membrane)
Description: as §6, §7

hERG channel [7] = biological target: T3, hERG channel; experiment: Test 5-2: activity for inhibiting hERG channel (whole-cell patch clamp, hERG-CHO cell, Qube); format: cell-based; conditions: read-out: hERG inhibition IC50
Description: Test 5-2: Evaluation of Activity for Inhibiting hERG Channel
as §3, §4, §5
Intracellular fluid: 10 mmol/L HEPES, 10 mmol/L EGTA, 20 mmol/L KCl, 130 mmol/L KF
Test compound solution: The compound was dissolved in DMSO by adjusting the concentration to 2 mmol/L or 20 mmol/L to prepare each test compound solution. […] (Measurement of Current Value and Data Analysis)
The cell suspension, the extracellular fluid, the intracellular fluid, and the measurement plate were set in an auto patch clamp system, and the hERG current was measured by whole-cell patch clamp method. The voltage-protocol was as follows: the holding potential was adjusted to −80 mV, the depolarizing pulse was added at −50 mV to +20 mV for 5 seconds, the repolarizing pulse was added at −50 mV for 5 seconds, then the potential was returned to the holding potential. Each pulse interval was 15 seconds. The data analysis was carried out with Qube Assay Software (Sophion Scientific). The test was carried out applying increscently 4 concentrations of each test compound, and the average of the peak tail currents that were obtained by the last 3 stimulations in each applied concentration was made to be the evaluated data. By using the current inhibition rate for the pre-applied current at each concentration of each test compound, IC50 value was calculated by Hill equation with the software.

[8] = 100% = 10 μmol/L endogenous ligand
[9] = [3H] 8-OH-DPAT, read-out: 5-HT1A binding affinity (Ki value)
[10] = [3H] dopamine, read-out: D4 binding affinity (Ki value)
[11] = [3H] spiperone, read-out: D2 binding affinity (Ki value)

T2 sequence (P21917 whole entry): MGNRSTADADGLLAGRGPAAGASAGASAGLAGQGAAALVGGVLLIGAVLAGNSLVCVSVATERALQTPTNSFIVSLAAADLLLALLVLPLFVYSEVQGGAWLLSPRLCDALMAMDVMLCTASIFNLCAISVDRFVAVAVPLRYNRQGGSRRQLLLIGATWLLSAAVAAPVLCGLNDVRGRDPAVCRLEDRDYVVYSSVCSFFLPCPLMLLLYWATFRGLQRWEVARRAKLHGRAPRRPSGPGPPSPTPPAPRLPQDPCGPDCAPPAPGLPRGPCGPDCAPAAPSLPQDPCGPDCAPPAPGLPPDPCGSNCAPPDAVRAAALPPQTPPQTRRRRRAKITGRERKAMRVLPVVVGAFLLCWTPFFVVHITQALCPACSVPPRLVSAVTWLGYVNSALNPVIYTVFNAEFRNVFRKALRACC
T1 sequence (P08908 whole entry): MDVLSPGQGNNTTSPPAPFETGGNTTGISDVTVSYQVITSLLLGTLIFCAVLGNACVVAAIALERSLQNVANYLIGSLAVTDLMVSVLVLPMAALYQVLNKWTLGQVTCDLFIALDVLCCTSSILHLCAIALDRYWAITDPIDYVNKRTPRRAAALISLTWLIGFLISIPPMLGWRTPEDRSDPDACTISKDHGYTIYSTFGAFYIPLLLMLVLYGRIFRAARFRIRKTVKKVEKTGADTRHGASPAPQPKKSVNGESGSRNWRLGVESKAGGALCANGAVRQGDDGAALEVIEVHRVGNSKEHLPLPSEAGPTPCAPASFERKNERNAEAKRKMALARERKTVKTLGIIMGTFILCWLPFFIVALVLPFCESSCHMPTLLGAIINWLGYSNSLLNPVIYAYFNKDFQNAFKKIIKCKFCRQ
T3 sequence (Q12809 whole entry): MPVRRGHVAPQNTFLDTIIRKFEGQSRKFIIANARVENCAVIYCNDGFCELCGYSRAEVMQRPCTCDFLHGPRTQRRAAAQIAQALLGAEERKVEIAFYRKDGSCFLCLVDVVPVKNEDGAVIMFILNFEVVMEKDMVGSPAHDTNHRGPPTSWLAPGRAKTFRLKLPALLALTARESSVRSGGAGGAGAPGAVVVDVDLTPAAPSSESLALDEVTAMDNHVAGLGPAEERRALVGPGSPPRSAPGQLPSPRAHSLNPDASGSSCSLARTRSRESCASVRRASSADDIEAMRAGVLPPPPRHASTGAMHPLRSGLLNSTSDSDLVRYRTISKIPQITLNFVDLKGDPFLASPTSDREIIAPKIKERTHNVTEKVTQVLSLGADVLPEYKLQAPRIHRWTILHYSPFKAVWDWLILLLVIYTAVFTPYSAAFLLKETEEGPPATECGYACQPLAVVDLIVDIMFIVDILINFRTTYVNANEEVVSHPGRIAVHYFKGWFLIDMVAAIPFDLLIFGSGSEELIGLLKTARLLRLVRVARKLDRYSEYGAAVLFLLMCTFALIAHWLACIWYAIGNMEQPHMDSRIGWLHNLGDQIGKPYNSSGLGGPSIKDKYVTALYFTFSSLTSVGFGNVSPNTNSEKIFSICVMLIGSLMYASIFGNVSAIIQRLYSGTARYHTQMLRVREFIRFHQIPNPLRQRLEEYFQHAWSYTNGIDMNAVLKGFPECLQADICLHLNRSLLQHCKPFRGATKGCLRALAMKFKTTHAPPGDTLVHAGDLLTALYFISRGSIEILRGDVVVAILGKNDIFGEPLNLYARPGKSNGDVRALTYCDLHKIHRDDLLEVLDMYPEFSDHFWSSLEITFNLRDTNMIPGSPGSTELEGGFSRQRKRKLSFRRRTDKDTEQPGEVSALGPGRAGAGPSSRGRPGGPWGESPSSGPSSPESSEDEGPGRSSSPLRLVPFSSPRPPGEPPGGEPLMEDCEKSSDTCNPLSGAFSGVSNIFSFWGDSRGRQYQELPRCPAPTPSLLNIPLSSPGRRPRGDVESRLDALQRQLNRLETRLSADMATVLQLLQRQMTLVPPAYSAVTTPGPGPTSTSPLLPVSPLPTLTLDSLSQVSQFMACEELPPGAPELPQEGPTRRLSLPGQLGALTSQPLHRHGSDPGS
human D2 receptor, sequence (P14416 whole entry): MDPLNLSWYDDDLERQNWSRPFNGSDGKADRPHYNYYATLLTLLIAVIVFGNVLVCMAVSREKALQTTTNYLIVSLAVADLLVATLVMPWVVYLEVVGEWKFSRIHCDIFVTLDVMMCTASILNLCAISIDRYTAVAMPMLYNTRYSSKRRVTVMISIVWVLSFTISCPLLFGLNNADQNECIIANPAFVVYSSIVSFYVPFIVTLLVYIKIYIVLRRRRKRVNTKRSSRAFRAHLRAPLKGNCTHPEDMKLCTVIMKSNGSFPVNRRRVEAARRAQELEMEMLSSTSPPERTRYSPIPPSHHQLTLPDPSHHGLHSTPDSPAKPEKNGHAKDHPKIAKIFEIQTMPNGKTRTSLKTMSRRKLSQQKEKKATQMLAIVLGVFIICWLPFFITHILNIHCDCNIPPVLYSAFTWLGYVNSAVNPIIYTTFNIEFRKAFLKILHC

| SMILES | 5-HT1A agonistic activity Emax (human 5-HT1A receptor [1]; [8]) [%] | D4 agonistic activity Emax (human D4 receptor [2]; [8]) [%] | Metabolic stability of human liver microsome [3] [mL/min/mg protein] | IC50 (hERG channel [4]) [µM] | Emax (human 5-HT1A receptor [1]; [8]) [%] | EC50 (human 5-HT1A receptor [1]) [nM] | Emax (human D4 receptor [2]; [8]) [%] | EC50 (human D4 receptor [2]) [nM] | Ki (human 5-HT1A receptor [5]; [9]) [nM] | Ki (human D4 receptor [6]; [10]) [nM] | Ki (human D2 receptor; [11]) [nM] | IC50 (hERG channel [7]) [µM] | Ki (human D4 receptor [6]) [nM] | Ki (human 5-HT1A receptor [5]) [nM] | Ki (human D2 receptor) [nM] |
| --- | --- | --- | --- | --- | --- | --- | --- | --- | --- | --- | --- | --- | --- | --- | --- |
| Cc1cccc(C2CCN(CCNC(=O)C(C)(C)C)CC2)n1 [Example 10] | 90 | 85 | 0.015 | > 10 | – | – | – | – | – | – | – | – | – | – | – |
| O=C(NCCN1CCC(c2cccc(C(F)(F)F)n2)CC1)C1CCCO1 (stereo not shown) [Example 25] | – | – | <0.05 | – | 46 | 67 | 49 | 30 | 20 | 423 | 3330 | > 10 | – | – | – |
| O=C(NCCN1CCC(c2cccc(C(F)(F)F)n2)CC1)[C@H]1C[C@@H]2CC[C@H]1O2 [Example 21] | – | – | <0.05 | – | 30 | 84 | 62 | 65 | 15 | 201 | 2170 | > 10 | – | – | – |
| O=C(NCCN1CCC(c2cccc(OC(F)(F)F)n2)CC1)C1CCOCC1 [Example 28] | – | – | <0.05 | – | 69 | 47 | 44 | 37 | 28 | 104 | 2470 | > 10 | – | – | – |
| O=C(NCCN1CC=C(c2cccc(C(F)(F)F)n2)CC1)C1CCCOC1 (stereo not shown) [Example 16, N-{2-[6-(Trifluoromethyl)-3′,6′-dihydro[2,4′-bipyridin]-1′ (2′H)-yl]ethyl}-tetrahydro-2H-pyran-3-carboxamide] | – | – | <0.05 | – | 36 | 43 | 51 | 31 | 6 | – | 1690 | > 10 | 27 | – | – |
| Cc1cccc(C2CCN(CCNC(=O)C3CCCOC3)CC2)n1 (stereo not shown) [Example 15] | – | – | <0.05 | – | 33 | 100 | 55 | 41 | 13 | 505 | > 10000 | > 10 | – | – | – |
| O=C(NCCN1CC=C(c2cccc(C(F)(F)F)n2)CC1)C1CCC(F)(F)CC1 [Example 12, 4,4-Difluoro-N-{2-[6-(trifluoromethyl)-3′,6′-dihydro[2,4′-bipyridin]-1′ (2′H)-yl]ethyl}-cyclohexane-1-carboxamide] | – | – | 0.115 | – | 43 | < 10 | 52 | 35 | 0.2 | – | 357 | 3.5 | 4.5 | – | – |
| Cc1cccc(C2=CCN(CCNC(=O)[C@H]3C[C@@H]4CC[C@H]3O4)CC2)n1 [Example 13] | – | – | <0.05 | – | 48 | < 10 | 55 | < 10 | 1.1 | – | > 10000 | > 10 | 24 | – | – |
| Cc1cccc(C2=CCN(CCNC(=O)C3CCCCO3)CC2)n1 (stereo not shown) [Example 20] | – | – | <0.05 | – | 40 | 57 | 60 | 15 | – | – | – | > 10 | 92 | 6.8 | > 10000 |
| CN(C)c1cccc(C2CCN(CCNC(=O)C3CCOCC3)CC2)n1 [Example 38, N-(2-{4-[6-(Dimethylamino)pyridin-2-yl]piperidin-1-yl}ethyl)-tetrahydro-2H-pyran-4-carboxamide] | – | – | <0.05 | – | 50 | 86 | 35 | 42 | 37 | 10 | > 10000 | > 10 | – | – | – |
| COCC(C)(C)C(=O)NCCN1CC=C(c2cccc(C(F)(F)F)n2)CC1 [Example 18] | – | – | <0.05 | – | 43 | 68 | 61 | 37 | 21 | – | 2210 | > 10 | 19 | – | – |
| COc1cccc(C2CCN(CCNC(=O)C3CCOCC3)CC2)n1 [Example 33] | – | – | <0.05 | – | 83 | 22 | 62 | 13 | 21 | 119 | > 10000 | > 10 | – | – | – |
